Consider 1 compound from patent CN108159055A, “治疗乳腺癌的长效递药系统、其制备方法及应用” (XI'AN LIBANG MEDICINE SCIENCE AND TECHNOLOGY Co Ltd, priority 2018, dated 2018).

This data set in a line: Miscibility of solvents with oils (Test Example 2 part 1, Table 2). Type of data set: physicochemical. The conditions noted are these: no phospholipid.

As for `CC(=O)OCC(COC(C)=O)OC(C)=O.CC(=O)OCC(COC(C)=O)OC(C)=O` [三乙酸甘油酯], the miscibility result is listed as “混溶” (with benzyl alcohol), “混溶” (with benzyl benzoate), “不混溶” (with ethanol) and “不混溶” (with ethyl lactate).
